Source: PubChem BioAssay (NCI)
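These data come from cells grown in 96-well plates and exposed to compound for 48 hours at five concentrations. TGI: total growth inhibition.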

How the values were obtained:
Test in all cases: NCI-60 cell line screen, 48 h
[1] = system: K-562 leukemia
[2] = system: NCI-H460 lung
[3] = system: MDA-N
[4] = system: OVCAR-3 ovarian
[5] = system: KM12 colon
[6] = system: DU-145 prostate
[7] = system: NCI-H522 lung
[8] = system: MOLT-4 leukemia
[9] = system: CAKI-1 renal
[10] = system: HCT-116 colon
[11] = system: TK-10 renal
[12] = system: M14 melanoma
[13] = system: EKVX NSCLC
[14] = system: SF-295 CNS
[15] = system: MDA-MB-435
[16] = system: SNB-75 CNS
[17] = system: A498 renal
[18] = system: NCI-H226 lung
[19] = system: HT29 colon
[20] = system: BT-549 breast
[21] = system: NCI/ADR-RES ovarian
[22] = system: SF-268 CNS
[23] = system: RXF 393 renal
[24] = system: IGROV1 ovarian
[25] = system: SK-OV-3 ovarian
[26] = system: MCF7 breast
[27] = system: HCC-2998 colon
[28] = system: UO-31 renal
[29] = system: SK-MEL-5 melanoma
[30] = system: SNB-19 CNS
[31] = system: A549 NSCLC
[32] = system: SW-620 colon
[33] = system: SK-MEL-2 melanoma
[34] = system: UACC-62 melanoma
[35] = system: MALME-3M melanoma
[36] = system: OVCAR-5 ovarian
[37] = system: NCI-H23 lung
[38] = system: ACHN renal
[39] = system: MDA-MB-231 breast
[40] = system: 786-0 renal
[41] = system: U251 CNS
[42] = system: RPMI-8226 leukemia
[43] = system: SN12C renal
[44] = system: UACC-257 melanoma
[45] = system: COLO 205 colon
[46] = system: OVCAR-4 ovarian
[47] = system: SK-MEL-28 melanoma
[48] = system: HCT-15 colon
[49] = system: HOP-92 NSCLC
[50] = system: PC-3 prostate
[51] = system: HS 578T breast
[52] = system: SF-539 CNS
[53] = system: CCRF-CEM leukemia
[54] = system: LOX IMVI melanoma
[55] = system: OVCAR-8 ovarian
[56] = system: SR leukemia
[57] = system: HL-60(TB) leukemia

Molecule `CCCCCCCCCCCCCCCCOCC(CC(F)(F)P(=O)(OCC)OCC)OC(C)=O` (stereo not given) has a TGI [1] of 48.9 µM, a TGI [2] of 26.3 µM and a TGI [3] of 31.6 µM. It also gave a TGI [4] of 31.4 µM, a TGI [5] of 23.8 µM and a TGI [6] of 28.8 µM. It also gave a TGI [7] of 31.2 µM, a TGI [8] greater than 100 µM and a TGI [9] of 30.3 µM. For the same molecule, the TGI [10] was 17 µM, the TGI [11] was 27.3 µM and the TGI [12] was 31.9 µM. It also gave a TGI [13] of 44.9 µM, a TGI [14] of 24.4 µM and a TGI [15] of 33.9 µM. It also gave a TGI [16] of 32.9 µM, a TGI [17] of 25.8 µM and a TGI [18] of 28.7 µM. For the same molecule, the TGI [19] was 35.5 µM, the TGI [20] was 28.8 µM and the TGI [21] was 32.4 µM. It also gave a TGI [22] of 27.5 µM, a TGI [23] of 38.5 µM and a TGI [24] of 21.8 µM. It also gave a TGI [25] of 35 µM, a TGI [26] of 33.5 µM and a TGI [27] of 22.6 µM. For the same molecule, the TGI [28] was 29.5 µM, the TGI [29] was 36.2 µM and the TGI [30] was 15.8 µM. The TGI [31] was 24.7 µM, the TGI [32] was 29.7 µM and the TGI [33] was 35.9 µM. The TGI [34] was 30.2 µM, the TGI [35] was 25.7 µM and the TGI [36] was 34.7 µM. For the same molecule, the TGI [37] was 34.6 µM, the TGI [38] was 27.3 µM and the TGI [39] was 30.1 µM. It also gave a TGI [40] of 23 µM, a TGI [41] of 13.7 µM and a TGI [42] greater than 100 µM. It also gave a TGI [43] of 44.5 µM, a TGI [44] of 33 µM and a TGI [45] of 32.5 µM. For the same molecule, the TGI [46] was 29.3 µM, the TGI [47] was 32.4 µM and the TGI [48] was 20.2 µM. The TGI [49] was 23.1 µM and the TGI [50] was 26.7 µM.
With `CC[C@@H]1CC[C@@H]2[C@H](CC[C@]3(C)[C@@H](OS(=O)(=O)c4ccc(C)cc4)CC[C@@H]23)[C@H]1COS(=O)(=O)c1ccc(C)cc1` the TGI [1] was greater than 100 µM, the TGI [2] was greater than 100 µM and the TGI [3] was greater than 100 µM. For the same molecule, the TGI [6] was greater than 100 µM, the TGI [51] was greater than 100 µM and the TGI [8] was greater than 100 µM. It also gave a TGI [10] greater than 100 µM, a TGI [11] greater than 100 µM and a TGI [12] greater than 100 µM. For the same molecule, the TGI [13] was greater than 100 µM, the TGI [14] was greater than 100 µM and the TGI [15] was greater than 100 µM. For the same molecule, the TGI [17] was greater than 100 µM, the TGI [52] was greater than 100 µM and the TGI [18] was greater than 100 µM. It also gave a TGI [19] greater than 100 µM, a TGI [20] greater than 100 µM and a TGI [21] greater than 100 µM. The TGI [22] was greater than 100 µM, the TGI [23] was greater than 100 µM and the TGI [24] was greater than 100 µM. For the same molecule, the TGI [26] was greater than 100 µM, the TGI [27] was greater than 100 µM and the TGI [28] was greater than 100 µM. The TGI [53] was greater than 100 µM, the TGI [54] was greater than 100 µM and the TGI [29] was greater than 100 µM. It also gave a TGI [30] greater than 100 µM, a TGI [31] greater than 100 µM and a TGI [32] greater than 100 µM. For the same molecule, the TGI [55] was greater than 100 µM, the TGI [35] was greater than 100 µM and the TGI [38] was greater than 100 µM. For the same molecule, the TGI [40] was greater than 100 µM, the TGI [41] was greater than 100 µM and the TGI [42] was greater than 100 µM. For the same molecule, the TGI [43] was greater than 100 µM, the TGI [56] was greater than 100 µM and the TGI [44] was greater than 100 µM. For the same molecule, the TGI [46] was greater than 100 µM, the TGI [47] was greater than 100 µM and the TGI [57] was greater than 100 µM. It also gave a TGI [48] greater than 100 µM, a TGI [49] greater than 100 µM and a TGI [50] greater than 100 µM.
